From patent publication US12139487B2, “Compounds and uses thereof” (Foghorn Therapeutics Inc., priority 2022, dated 2024)

Legend:
BRG-1 = molecular target: T1, BRG-1 (Homo sapiens, UniProt P51532); assay: ATPase catalytic activity assay (ADP-Glo), BRG-1; assay type: biochemical; conditions: Table 10, read-out: BRG1 IC50
T1 construct: made in house; host or cells: High Five insect cells
Method in brief: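 ADP produced by BRG-1 was quantified by luciferase luminescence. A 60 min room-temperature ADP-to-ATP conversion followed a 40 min ATP-depletion step.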

BRM = molecular target: T2, BRM (Homo sapiens, UniProt P51531); assay: ATPase catalytic activity assay (ADP-Glo), BRM; assay type: biochemical; conditions: Table 10; for Ratio (BRG1 IC50 (μM) divided by BRM IC50 (μM)): ATPase assay, selectivity BRG1/BRM; for IC50: ATPase catalytic activity assay (ADP-Glo)
T2 construct: made in house; host or cells: High Five insect cells
T2 sequence (P51531 whole entry): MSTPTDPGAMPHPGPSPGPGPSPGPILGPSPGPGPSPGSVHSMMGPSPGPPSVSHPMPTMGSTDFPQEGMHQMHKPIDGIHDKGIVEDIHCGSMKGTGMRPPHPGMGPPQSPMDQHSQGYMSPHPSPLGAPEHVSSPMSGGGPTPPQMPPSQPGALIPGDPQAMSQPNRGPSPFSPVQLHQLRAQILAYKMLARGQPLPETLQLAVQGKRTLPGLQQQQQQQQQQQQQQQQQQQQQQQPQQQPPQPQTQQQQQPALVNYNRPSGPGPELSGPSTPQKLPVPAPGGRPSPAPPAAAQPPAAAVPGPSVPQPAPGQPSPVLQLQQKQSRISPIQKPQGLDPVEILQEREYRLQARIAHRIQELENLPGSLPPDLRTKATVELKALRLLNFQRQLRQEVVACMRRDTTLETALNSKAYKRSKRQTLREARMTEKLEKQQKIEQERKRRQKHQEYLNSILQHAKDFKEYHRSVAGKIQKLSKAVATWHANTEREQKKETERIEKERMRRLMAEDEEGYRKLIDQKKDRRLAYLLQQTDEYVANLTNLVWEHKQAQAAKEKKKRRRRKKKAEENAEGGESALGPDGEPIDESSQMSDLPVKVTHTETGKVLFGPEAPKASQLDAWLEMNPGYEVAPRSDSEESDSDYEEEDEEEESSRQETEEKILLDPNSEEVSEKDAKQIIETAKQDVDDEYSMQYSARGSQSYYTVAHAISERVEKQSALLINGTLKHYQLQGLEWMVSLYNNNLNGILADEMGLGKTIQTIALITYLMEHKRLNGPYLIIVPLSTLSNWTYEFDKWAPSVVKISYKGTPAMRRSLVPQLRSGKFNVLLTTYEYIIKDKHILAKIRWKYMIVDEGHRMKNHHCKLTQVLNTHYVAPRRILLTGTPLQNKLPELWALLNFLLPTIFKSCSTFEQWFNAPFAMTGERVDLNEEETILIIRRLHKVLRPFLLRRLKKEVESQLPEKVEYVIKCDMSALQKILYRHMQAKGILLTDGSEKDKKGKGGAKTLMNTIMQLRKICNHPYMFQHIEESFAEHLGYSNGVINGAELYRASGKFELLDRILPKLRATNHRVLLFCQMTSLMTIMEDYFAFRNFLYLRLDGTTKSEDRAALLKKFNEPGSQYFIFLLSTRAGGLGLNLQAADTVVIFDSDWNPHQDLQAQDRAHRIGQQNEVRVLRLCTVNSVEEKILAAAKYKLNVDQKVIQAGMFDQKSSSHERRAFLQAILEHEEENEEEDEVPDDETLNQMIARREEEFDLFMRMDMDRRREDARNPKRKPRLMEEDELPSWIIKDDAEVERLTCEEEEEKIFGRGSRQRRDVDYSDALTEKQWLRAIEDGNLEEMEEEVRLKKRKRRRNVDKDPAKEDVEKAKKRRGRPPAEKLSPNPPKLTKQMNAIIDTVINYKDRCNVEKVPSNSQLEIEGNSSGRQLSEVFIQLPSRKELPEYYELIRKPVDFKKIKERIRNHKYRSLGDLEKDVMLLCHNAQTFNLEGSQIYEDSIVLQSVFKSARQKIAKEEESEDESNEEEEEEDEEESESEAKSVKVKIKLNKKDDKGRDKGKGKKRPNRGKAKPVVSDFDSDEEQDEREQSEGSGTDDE
Method in brief: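 ADP-Glo luminescence measures ADP produced by BRM ATPase (30 nM) during 1 h at room temperature. ATP is 400 μM, with 20 nM salmon sperm DNA as cofactor. Buffer: 20 mM Tris pH 8, 20 mM MgCl2, 50 mM NaCl, 0.1% Tween-20, 1 mM DTT.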

T1 sequence (P51532 whole entry): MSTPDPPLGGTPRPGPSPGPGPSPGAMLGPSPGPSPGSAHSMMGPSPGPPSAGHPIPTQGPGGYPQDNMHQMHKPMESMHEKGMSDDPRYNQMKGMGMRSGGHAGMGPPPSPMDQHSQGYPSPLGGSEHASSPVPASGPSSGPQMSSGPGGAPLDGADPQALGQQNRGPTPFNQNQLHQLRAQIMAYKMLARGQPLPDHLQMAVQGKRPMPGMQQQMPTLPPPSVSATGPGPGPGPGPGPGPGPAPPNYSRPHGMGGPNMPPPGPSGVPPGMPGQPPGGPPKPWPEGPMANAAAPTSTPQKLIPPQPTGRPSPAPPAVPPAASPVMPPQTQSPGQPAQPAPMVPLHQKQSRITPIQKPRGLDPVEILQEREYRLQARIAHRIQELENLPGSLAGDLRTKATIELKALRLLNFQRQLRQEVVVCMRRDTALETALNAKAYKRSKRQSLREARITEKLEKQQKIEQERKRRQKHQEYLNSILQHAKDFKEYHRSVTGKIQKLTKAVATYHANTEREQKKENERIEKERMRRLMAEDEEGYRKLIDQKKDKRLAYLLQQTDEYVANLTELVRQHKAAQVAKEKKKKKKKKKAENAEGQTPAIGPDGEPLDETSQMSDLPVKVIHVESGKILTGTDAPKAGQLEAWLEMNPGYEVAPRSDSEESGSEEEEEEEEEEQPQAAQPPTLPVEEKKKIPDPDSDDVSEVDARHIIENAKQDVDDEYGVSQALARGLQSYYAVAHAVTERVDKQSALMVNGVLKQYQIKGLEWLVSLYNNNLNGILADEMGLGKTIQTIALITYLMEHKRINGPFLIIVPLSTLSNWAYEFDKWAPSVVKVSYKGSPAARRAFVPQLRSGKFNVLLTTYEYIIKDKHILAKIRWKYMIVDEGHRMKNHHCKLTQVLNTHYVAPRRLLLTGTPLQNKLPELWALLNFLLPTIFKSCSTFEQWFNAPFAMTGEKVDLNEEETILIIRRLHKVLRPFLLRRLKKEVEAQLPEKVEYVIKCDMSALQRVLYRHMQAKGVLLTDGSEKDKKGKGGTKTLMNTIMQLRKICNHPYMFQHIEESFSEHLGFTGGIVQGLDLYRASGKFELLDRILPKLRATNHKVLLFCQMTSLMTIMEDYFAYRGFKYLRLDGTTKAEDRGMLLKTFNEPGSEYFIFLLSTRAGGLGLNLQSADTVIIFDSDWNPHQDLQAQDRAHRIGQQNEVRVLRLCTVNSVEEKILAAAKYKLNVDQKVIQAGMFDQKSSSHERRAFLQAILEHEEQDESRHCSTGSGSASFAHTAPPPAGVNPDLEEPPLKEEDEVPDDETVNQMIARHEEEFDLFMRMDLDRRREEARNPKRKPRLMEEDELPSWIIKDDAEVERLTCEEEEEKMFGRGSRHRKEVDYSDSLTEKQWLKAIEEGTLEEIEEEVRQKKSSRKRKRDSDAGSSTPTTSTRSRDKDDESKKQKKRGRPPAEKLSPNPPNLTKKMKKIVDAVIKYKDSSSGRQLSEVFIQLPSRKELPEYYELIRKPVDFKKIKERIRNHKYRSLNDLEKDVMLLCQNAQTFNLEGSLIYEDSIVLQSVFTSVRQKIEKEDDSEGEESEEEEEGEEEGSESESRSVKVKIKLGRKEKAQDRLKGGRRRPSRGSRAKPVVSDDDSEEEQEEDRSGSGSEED

| IC50 (BRG-1) | Ratio (BRG1 IC50 (μM) divided by BRM IC50 (μM)) (BRM) | IC50 (BRM) | Structure (SMILES) |
| --- | --- | --- | --- |
| 74.1 nM | 13.09 | 5.5 nM | O=C(NCc1cc2nc(N3CCCc4cc(N5CCOCC5)cnc43)ccc2cn1)c1cc(F)c2c(c1)S(=O)(=O)[C@@H](F)CCO2 [Compound 172] |
| 178 nM | 30.21 | 5.5 nM | COc1nc([C@H](C)F)ccc1-c1ccc2cnc(CNC(=O)c3cc(F)c4c(c3)S(=O)(=O)[C@@H](F)CCO4)cc2n1 [Compound 173] |
| 158 nM | 28.19 | 5.6 nM | COc1nc([C@H](C)F)ccc1-c1ccc2cnc(CNC(=O)c3cc(Cl)c4c(c3)S(=O)(=O)[C@@H](F)COC4)cc2n1 [Compound 174] |
| 49.3 nM | 12.83 | 5.6 nM | C[C@@H]1CCN1c1cnc2c(c1)OCCN2c1ccc2cnc(CNC(=O)c3cc(C(F)F)c4c(c3)S(=O)(=O)[C@@H](F)COC4)cc2n1 [Compound 175] |
| 123 nM | 17.02 | 5.6 nM | CC(F)(F)c1cnc2c(c1)OCCN2c1ccc2cnc(CNC(=O)c3cc(F)c4c(c3)S(=O)(=O)[C@@H](F)CCO4)cc2n1 [Compound 176] |
| 113 nM | 22.67 | 5.6 nM | COc1nc(C(F)F)ccc1-c1ccc2cnc(CNC(=O)c3cc(F)c4c(c3)S(=O)(=O)[C@@H](F)CCO4)cc2n1 [Compound 177] |
| 207 nM | 34.29 | 5.6 nM | O=C(NCc1cc2nc(N3CCCc4sc(C5CC5)nc43)ccc2cn1)c1cc(F)c2c(c1)S(=O)(=O)[C@@H](F)CCO2 [Compound 178] |
| 59.9 nM | 10.62 | 5.6 nM | O=C(NCc1cc2cc(-c3ccc(OC(F)F)c(C4CC4)n3)ccc2cn1)c1cc(F)c2c(c1)S(=O)(=O)[C@@H](F)CCO2 [Compound 179] |
| 104 nM | 18.29 | 5.7 nM | O=C(NCc1cc2nc(N3CCOc4cc(OC(F)F)cnc43)ccc2cn1)c1cc(F)c2c(c1)S(=O)(=O)[C@@H](F)CCO2 [Compound 180] |
| 146 nM | 29.09 | 5.7 nM | COc1ccc(-c2ccc3cnc(CNC(=O)c4cc(F)c5c(c4)S(=O)(=O)[C@@H](F)CCO5)cc3n2)nc1C1CC1 [Compound 181] |
| 83.9 nM | 16.19 | 5.7 nM | O=C(NCc1cc2nc(N3CCOc4cc(N5CC[C@@H](F)C5)cnc43)ccc2cn1)c1cc(F)c2c(c1)S(=O)(=O)[C@@H](F)CCO2 [Compound 182] |
| 89.9 nM | 12.89 | 5.7 nM | O=C(NCc1cc2nc(N3CCOc4cc(N5CC[C@H](F)C5)cnc43)ccc2cn1)c1cc(F)c2c(c1)S(=O)(=O)[C@@H](F)CCO2 [Compound 183] |
| 3420 nM | 23.91 | 143 nM | O=C(NCc1cc(C#Cc2cccc(OC(F)F)n2)ccn1)c1cc(F)c2c(c1)S(=O)(=O)[C@@H](F)COC2 [Compound 184, (R)—N-((4-((6-(difluoromethoxy)pyridin-2-yl)ethynyl)pyridin-2-yl)methyl)-2,6-difluoro-3,5-dihydro-2H-benzo[e][1,4]oxathiepine-8-carboxamide 1,1-dioxide] |
| 110 nM | 21.73 | 5.7 nM | O=C(NCc1cc2nc(N3CCOc4ccc(C(F)F)nc43)ccc2cn1)c1cc(F)c2c(c1)S(=O)(=O)[C@@H](F)CCO2 [Compound 185] |
| 102 nM | 16.18 | 5.7 nM | [2H]C1([2H])Oc2c(F)cc(C(=O)NCc3cc4nc(-c5ccc(OC(F)F)c(C6CC6)n5)ccc4cn3)cc2S(=O)(=O)[C@@]([2H])(F)C1([2H])[2H] [Compound 186] |
